Measurements reported in US9000010B2, “Alkyl-heterocycle carbamate derivatives, their preparation and their therapeutic application” (Sanofi, priority 2010, dated 2015).

Columns and labels:
[1] = molecular target: T1, FAAH (Fatty Acid Amide Hydrolase) (Mus musculus, UniProt O08914); assay: Radioenzymatic test of FAAH inhibition: hydrolysis of anandamide [ethanolamine 1-3H] by mouse brain membrane homogenates; assay type: biochemical; conditions: mouse brain membrane homogenate; preincubation 20 min at 25° C.; anandamide 10 μM; read-out: CI50 (concentration which inhibits the control enzymatic activity of FAAH by 50%)
T1 construct: The membrane homogenates are prepared at the time of use by homogenization of the tissues; from tissue; host or cells: mouse brain (minus the cerebellum), membrane homogenate
T1 sequence (O08914 1-579): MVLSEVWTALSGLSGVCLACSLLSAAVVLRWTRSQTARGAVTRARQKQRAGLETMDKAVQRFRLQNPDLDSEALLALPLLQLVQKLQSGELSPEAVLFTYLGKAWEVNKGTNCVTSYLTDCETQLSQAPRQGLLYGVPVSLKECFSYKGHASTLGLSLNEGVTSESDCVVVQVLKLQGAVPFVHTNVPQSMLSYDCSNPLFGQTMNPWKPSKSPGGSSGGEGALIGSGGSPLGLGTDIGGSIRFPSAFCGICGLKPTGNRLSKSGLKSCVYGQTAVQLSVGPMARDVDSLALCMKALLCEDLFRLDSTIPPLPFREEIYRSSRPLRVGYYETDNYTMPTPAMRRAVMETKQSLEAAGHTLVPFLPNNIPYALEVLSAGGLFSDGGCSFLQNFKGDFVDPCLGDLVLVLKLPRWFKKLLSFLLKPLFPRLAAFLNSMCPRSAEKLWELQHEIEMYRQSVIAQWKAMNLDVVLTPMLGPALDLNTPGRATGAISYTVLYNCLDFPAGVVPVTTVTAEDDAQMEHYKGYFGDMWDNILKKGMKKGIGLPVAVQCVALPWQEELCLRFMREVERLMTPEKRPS
Protocol: The compounds of the invention form the subject of pharmacological trials which make it possible to determine their inhibitory effect on the enzyme FAAH (Fatty Acid Amide Hydrolase).
Thus, mouse brains (minus the cerebellum) are removed and stored at −80° C. The membrane homogenates are prepared at the time of use by homogenization of the tissues using a Precellys® device in the reaction buffer (Tris-HCl 10 mM pH=8, NaCl 150 mM and ethylenediaminetetraacetic acid (EDTA) 1 mM). The enzymatic reaction is carried out in 96-well MultiScreen filtration plates in a final volume of 70 μl. Reaction buffer supplemented with bovine serum albumin free from fatty acids (BSA, 1 mg/ml) is used for the enzymatic reaction, the dilution of the compounds and the dilution of the anandamide [ethanolamine 1-^3H]. Reaction buffer comprising the BSA (43 μl/well), the diluted test compounds at different concentrations (7 μl/well comprising 1% of DMSO) and the membrane preparation (10 μl/well, i.e. 200 μg of tissue per trial) are successively added to the wells. After preincubating the compounds with the enzyme at 25° C. for 20 minutes, the reaction is initiated by the addition of anandamide [ethanolamine 1-^3H] (specific activity of 15-20 Ci/mmol) diluted with cold anandamide (10 μl/well, final concentration of 10 μM, 0.01 μCi, per trial). After incubating at 25° C. for 20 minutes, the enzymatic reaction is halted by addition of a […] active charcoal solution prepared in a 1.5M NaCl and 0.5M HCl buffer (50 μl/well). The mixture is stirred for 10 minutes and then the aqueous phase comprising the [1-^3H]ethanolamine is recovered by filtration under vacuum and counted by liquid scintillation.

Structure (SMILES): O=C(OCc1cscn1)N1CCC(COc2cnc3ccccc3c2)C1 (racemic) [No. 26, Thiazol-4-ylmethyl (+/−)-3-(quinolin-3-yloxymethyl)-pyrrolidine-1-carboxylate]
- melting point: 83 to 85 °C
- IC50 [1]: 86 nM

Structure (SMILES): O=C(OCc1nccs1)N1CCC(COc2ccc3c(Cl)cccc3c2)C1 (racemic) [No. 196, Thiazol-2-ylmethyl (+/−)-3-(5-chloronaphth-2-yloxymethyl)pyrrolidine-1-carboxylate]
- melting point: 100 to 102 °C
- IC50 [1]: 252 nM

Structure (SMILES): NC(=O)c1cc(COC(=O)N2CC[C@@H](COc3ccc4ccccc4c3)C2)on1 (single isomer, unassigned) [No. 200]
- melting point: 138 to 140 °C
- IC50 [1]: 122 nM

Structure (SMILES): NC(=O)c1cc(COC(=O)N2CC[C@H](COc3ccc4ccccc4c3)C2)on1 (single isomer, unassigned) [No. 202]
- melting point: 139 to 141 °C
- IC50 [1]: 8 nM

Structure (SMILES): CCCCOc1cccc(OCCC2CCN(C(=O)OCc3cscn3)CC2)c1 [No. 90, Thiazol-4-ylmethyl 4-[2-(3-butoxyphenoxy)ethyl]-piperidine-1-carboxylate]
- IC50 [1]: 92 nM

Structure (SMILES): NC(=O)c1cc(COC(=O)N2CCC(CCOc3ccc(OC(F)(F)F)cc3)CC2)on1 [No. 199, 3-Carbamoylisoxazol-5-ylmethyl 4-[2-(4-{trifluoromethoxy}phenoxy)ethyl]piperidine-1-carboxylate]
- melting point: 112 to 115 °C
- IC50 [1]: 350 nM
